Results as given in patent US8710043B2, “TRPM8 antagonists and their use in treatments” (Amgen Inc., priority 2011, dated 2014).

The molecules below were run against T1, human TRPM8 (Homo sapiens, UniProt Q7Z2W7) (assay: Luminescence readout assay for measuring intracellular calcium, icilin activation). Conditions: CHO cells expressing human TRPM8, aequorin luminescence, 1 μM icilin activation; read-out: hTRPM8 IC50.
T1 construct: expressed in transfected cells; host or cells: Chinese hamster ovary (CHO) cells, T-REx tetracycline-inducible system, co-transfected with aequorin
Type: cell-based
Experimental: Luminescence Readout Assay for Measuring Intracellular Calcium.
A stable Chinese hamster ovary cell line expressing human TRPM8 was generated using tetracycline inducible T-REx™ expression system from Invitrogen, Inc. (Carlsbad, Calif.). […] Twenty four hours before the assay, cells were seeded in 96-well plates and TRPM8 expression was induced with 0.5 μg/mL tetracycline. […] Potential antagonists were added 2.5 min prior to the addition of agonist, 1 μM icilin, 100 μM L-menthol, or 1 min prior to the addition of cold buffer (<10° C.). The luminescence was measured by a CCD camera based FLASH-luminometer built by Amgen, Inc. A cooling device attached to FLASH luminometer was used for cold activation.

T1 sequence (Q7Z2W7 whole entry): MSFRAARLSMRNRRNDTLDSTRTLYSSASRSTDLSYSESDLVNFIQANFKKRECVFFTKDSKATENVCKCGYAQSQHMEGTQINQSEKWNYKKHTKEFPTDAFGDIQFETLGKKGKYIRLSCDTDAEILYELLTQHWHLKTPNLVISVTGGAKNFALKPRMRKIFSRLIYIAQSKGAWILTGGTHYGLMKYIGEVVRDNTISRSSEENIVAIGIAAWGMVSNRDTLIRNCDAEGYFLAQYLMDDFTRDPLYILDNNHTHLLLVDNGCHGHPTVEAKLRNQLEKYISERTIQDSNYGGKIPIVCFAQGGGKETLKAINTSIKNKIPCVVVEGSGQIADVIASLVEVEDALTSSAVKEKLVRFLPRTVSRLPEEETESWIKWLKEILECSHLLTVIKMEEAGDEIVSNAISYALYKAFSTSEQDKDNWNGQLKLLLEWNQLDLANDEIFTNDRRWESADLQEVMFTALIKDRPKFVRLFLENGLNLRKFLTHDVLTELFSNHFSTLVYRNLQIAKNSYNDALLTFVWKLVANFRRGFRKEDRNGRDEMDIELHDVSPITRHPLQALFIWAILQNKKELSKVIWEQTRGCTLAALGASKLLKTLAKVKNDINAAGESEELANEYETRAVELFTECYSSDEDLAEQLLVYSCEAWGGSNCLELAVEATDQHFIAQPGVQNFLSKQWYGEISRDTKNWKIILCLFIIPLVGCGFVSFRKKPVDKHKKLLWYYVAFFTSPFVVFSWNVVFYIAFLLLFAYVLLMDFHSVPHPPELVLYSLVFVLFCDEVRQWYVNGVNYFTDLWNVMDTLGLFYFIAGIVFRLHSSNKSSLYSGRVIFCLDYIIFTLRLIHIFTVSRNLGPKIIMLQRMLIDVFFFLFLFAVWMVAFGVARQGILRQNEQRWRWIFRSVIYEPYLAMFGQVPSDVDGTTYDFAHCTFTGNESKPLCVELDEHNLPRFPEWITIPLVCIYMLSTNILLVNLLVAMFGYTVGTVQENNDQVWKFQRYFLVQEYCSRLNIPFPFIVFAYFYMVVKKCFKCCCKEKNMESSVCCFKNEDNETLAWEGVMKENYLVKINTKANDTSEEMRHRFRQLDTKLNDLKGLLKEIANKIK

IC50 | Structure (SMILES)
17 nM | O=C(N[C@@H](c1ccc(OC(F)(F)F)cc1)c1ncccc1F)c1ccc2cccnc2c1 [Example 2, (S)-N-((3-fluoropyridin-2-yl)(4-(trifluoromethoxy)phenyl)methyl)quinoline-7-carboxamide]
44 nM | O=C(N[C@@H](c1cnc2ccc(Cl)cc2c1)c1ncccc1C(F)(F)F)c1ccc2cccnc2c1 [Example 4, (S)-N-((6-chloroquinolin-3-yl)(3-(trifluoromethyl)pyridin-2-yl)methyl)quinoline-7-carboxamide]
73.9 nM | O=C(N[C@@H](c1ccc(Cl)cc1)c1ncccc1C(F)(F)F)c1ccc2cccnc2c1 [Example 6, (S)-N-((4-chlorophenyl)(3-(trifluoromethyl)pyridin-2-yl)methyl)quinoline-7-carboxamide]
146 nM | O=C(N[C@@H](c1cnc2cccc(Cl)c2c1)c1ncccc1C(F)(F)F)c1ccc2cccnc2c1 [Example 9, (S)-N-((5-chloroquinolin-3-yl)(3-(trifluoromethyl)pyridin-2-yl)methyl)quinoline-7-carboxamide]
83.3 nM | O=C(N[C@@H](c1cccc(Cl)c1)c1ncccc1C(F)(F)F)c1ccc2cccnc2c1 [Example 13, (S)-N-((3-chlorophenyl)(3-(trifluoromethyl)pyridin-2-yl)methyl)quinoline-7-carboxamide]
80.7 nM | O=C(N[C@@H](c1cnc2ccc(Cl)cc2c1)c1ncccc1C(F)(F)F)c1ccc(=O)[nH]c1 [Example 16, (S)-N-((6-chloroquinolin-3-yl)(3-(trifluoromethyl)pyridin-2-yl)methyl)-6-hydroxynicotinamide]
418 nM | O=C(N[C@@H](c1ccc2ncccc2c1)c1ncccc1C(F)(F)F)c1ccc2cccnc2c1 [Example 22, (S)-N-(quinolin-6-yl(3-(trifluoromethyl)pyridin-2-yl)methyl)quinoline-7-carboxamide]
1060 nM | COc1cccc2cc([C@H](NC(=O)c3ccc4cccnc4c3)c3ncccc3C(F)(F)F)cnc12 [Example 23, (S)-N-((8-methoxyquinolin-3-yl)(3-(trifluoromethyl)pyridin-2-yl)methyl)quinoline-7-carboxamide]
318 nM | COc1cccc([C@H](NC(=O)c2ccc3cccnc3c2)c2ncccc2C(F)(F)F)c1 [Example 24, (S)-N-((3-methoxyphenyl)(3-(trifluoromethyl)pyridin-2-yl)methyl)quinoline-7-carboxamide]
36.8 nM | COc1ccc([C@H](NC(=O)c2ccc3cccnc3c2)c2ncccc2C(F)(F)F)cc1F [Example 25, (S)-N-((3-fluoro-4-methoxyphenyl)(3-(trifluoromethyl)pyridin-2-yl)methyl)quinoline-7-carboxamide]
3290 nM | CC(O)c1ccc([C@H](NC(=O)c2ccc3cccnc3c2)c2ncccc2C(F)(F)F)cc1 (stereo partly drawn) [Example 26, N-((1S)-(4-(1-hydroxyethyl)phenyl)(3-(trifluoromethyl)pyridin-2-yl)methyl)quinoline-7-carboxamide]
143 nM | COc1ccnc(C(=O)N[C@@H](c2ccc(C(F)(F)F)cc2)c2ncccc2C(F)(F)F)c1 [Example 32, (S)-4-methoxy-N-((4-(trifluoromethyl)phenyl)(3-(trifluoromethyl)pyridin-2-yl)methyl)picolinamide]
125 nM | COc1cccc(C(=O)N[C@@H](c2ccc(C(F)(F)F)cc2)c2ncccc2C(F)(F)F)n1 [Example 33, (S)-6-methoxy-N-((4-(trifluoromethyl)phenyl)(3-(trifluoromethyl)pyridin-2-yl)methyl)picolinamide]
32.2 nM | COc1cc(C(=O)N[C@@H](c2ccc(C(F)(F)F)cc2)c2ncccc2C(F)(F)F)ccn1 [Example 34, (S)-2-methoxy-N-((4-(trifluoromethyl)phenyl)(3-(trifluoromethyl)pyridin-2-yl)methyl)isonicotinamide]
19.6 nM | COc1ccc(C(=O)NC(c2ccc(C(F)(F)F)cc2)c2ncccc2F)cn1 (stereo not drawn) [Example 35, N-((3-fluoropyridin-2-yl)(4-(trifluoromethyl)phenyl)methyl)-6-methoxynicotinamide]
73 nM | COc1ncccc1C(=O)NC(c1ccc(C(F)(F)F)cc1)c1ncccc1F (stereo not drawn) [Example 36, N-((3-fluoropyridin-2-yl)(4-(trifluoromethyl)phenyl)methyl)-2-methoxynicotinamide]
77.7 nM | COc1cncc(C(=O)N[C@@H](c2ccc(C(F)(F)F)cc2)c2ncccc2C(F)(F)F)c1 [Example 38, (S)-5-methoxy-N-((4-(trifluoromethyl)phenyl)(3-(trifluoromethyl)pyridin-2-yl)methyl)nicotinamide]
13.4 nM | Cc1ccc(C(=O)N[C@@H](c2ccc(C(F)(F)F)cc2)c2ncccc2C(F)(F)F)cn1 [Example 40, (S)-6-methyl-N-((4-(trifluoromethyl)phenyl)(3-(trifluoromethyl)pyridin-2-yl)methyl)nicotinamide]
24.5 nM | O=C(N[C@@H](c1ccc(C(F)(F)F)cc1)c1ncccc1C(F)(F)F)c1c[nH]c2ncccc12 [Example 43, (S)-N-((4-(trifluoromethyl)phenyl)(3-(trifluoromethyl)pyridin-2-yl)methyl)-1H-pyrrolo[2,3-b]pyridine-3-carboxamide]

Second part, the molecule before the results:

Structure (SMILES) | IC50
N#Cc1ccc(C(=O)N[C@@H](c2ccc(C(F)(F)F)cc2)c2ncccc2F)cc1 (stereo in doubt) [Example 200, 4-cyano-N-((3-fluoropyridin-2-yl)(4-(trifluoromethyl)phenyl)methyl)benzamide] | 49.3 nM
O=C(N[C@@H](c1ccc(C(F)(F)F)cc1)c1ncccc1F)c1ccc2cccnc2c1 (stereo in doubt) [Example 204, N-((3-fluoropyridin-2-yl)(4-(trifluoromethyl)phenyl)methyl)quinoline-7-carboxamide] | 104 nM
O=C(N[C@@H](c1ccc(I)cc1)c1ncccc1C(F)(F)F)c1ccc(=O)[nH]c1 (stereo in doubt) [Example 376, N-((4-iodophenyl)(3-(trifluoromethyl)pyridin-2-yl)methyl)-6-oxo-1,6-dihydropyridine-3-carboxamide] | 53 nM
O=C(N[C@@H](c1ccc(Cl)c(Cl)c1)c1ncccc1C(F)(F)F)c1ccc(=O)[nH]c1 [Example 3, (S)-N-((3,4-dichlorophenyl)(3-(trifluoromethyl)pyridin-2-yl)methyl)-6-hydroxynicotinamide] | 17.7 nM
O=C(N[C@@H](c1cnc2c(Cl)cccc2c1)c1ncccc1C(F)(F)F)c1ccc2cccnc2c1 [Example 7, (S)-N-((8-chloroquinolin-3-yl)(3-(trifluoromethyl)pyridin-2-yl)methyl)quinoline-7-carboxamide] | 75.8 nM
COc1ccc2cc([C@H](NC(=O)c3ccc4cccnc4c3)c3ncccc3C(F)(F)F)cnc2c1 [Example 8, (S)-N-((7-methoxyquinolin-3-yl)(3-(trifluoromethyl)pyridin-2-yl)methyl)quinoline-7-carboxamide] | 54.3 nM
O=C(N[C@@H](c1ccc(Cl)c(Cl)c1)c1ncccc1C(F)(F)F)c1ccc2cccnc2c1 [Example 10] | 20.5 nM
O=C(N[C@@H](c1ccc2ccccc2c1)c1ncccc1C(F)(F)F)c1ccc2cccnc2c1 [Example 15, (S)-N-(naphthalen-2-yl(3-(trifluoromethyl)pyridin-2-yl)methyl)quinoline-7-carboxamide] | 117 nM
O=C(N[C@@H](c1cccc(F)c1)c1ncccc1C(F)(F)F)c1ccc2cccnc2c1 [Example 17, (S)-N-((3-fluorophenyl)(3-(trifluoromethyl)pyridin-2-yl)methyl)quinoline-7-carboxamide] | 230 nM
O=C(N[C@@H](c1cnc2c(F)cccc2c1)c1ncccc1C(F)(F)F)c1ccc2cccnc2c1 [Example 20, (S)-N-((8-fluoroquinolin-3-yl)(3-(trifluoromethyl)pyridin-2-yl)methyl)quinoline-7-carboxamide] | 187 nM
COc1cccnc1[C@@H](NC(=O)c1ccc2cccnc2c1)c1ccc(C(F)(F)F)cc1 [Example 28, (S)-N-((3-methoxypyridin-2-yl)(4-(trifluoromethyl)phenyl)methyl)quinoline-7-carboxamide] | 194 nM
COc1ncccc1C(=O)N[C@@H](c1ccc(C(F)(F)F)cc1)c1ncccc1C(F)(F)F [Example 29] | 32.4 nM
O=C(N[C@@H](c1ccc(C(F)(F)F)cc1)c1ncccc1C(F)(F)F)c1cccnn1 [Example 31, (S)-N-((4-(trifluoromethyl)phenyl)(3-(trifluoromethyl)pyridin-2-yl)methyl)pyridazine-3-carboxamide] | 162 nM
COc1ccc(C(=O)N[C@@H](c2ccc(C(F)(F)F)cc2)c2ncccc2C(F)(F)F)nn1 [Example 37, (S)-6-methoxy-N-((4-(trifluoromethyl)phenyl)(3-(trifluoromethyl)pyridin-2-yl)methyl)pyridazine-3-carboxamide] | 146 nM
Cc1cc(C(=O)N[C@@H](c2ccc(C(F)(F)F)cc2)c2ncccc2C(F)(F)F)ccn1 [Example 39, (S)-2-methyl-N-((4-(trifluoromethyl)phenyl)(3-(trifluoromethyl)pyridin-2-yl)methyl)isonicotinamide] | 17.8 nM
COc1ncc(C(=O)N[C@@H](c2ccc(C(F)(F)F)cc2)c2ncccc2C(F)(F)F)cn1 [Example 42, (S)-2-methoxy-N-((4-(trifluoromethyl)phenyl)(3-(trifluoromethyl)pyridin-2-yl)methyl)pyrimidine-5-carboxamide] | 53.9 nM
O=C(N[C@@H](c1ccc(C(F)(F)F)cc1)c1ncccc1C(F)(F)F)c1cc[nH]c(=O)c1 [Example 44, (S)-2-hydroxy-N-((4-(trifluoromethyl)phenyl)(3-(trifluoromethyl)pyridin-2-yl)methyl)isonicotinamide] | 229 nM
